Experimental data from PubChem BioAssay (NCI).
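Where inhibition never reached the appropriate level, the endpoint shown equals the highest concentration tested. Otherwise, values were interpolated linearly from a five-concentration, 48-hour dose response in 96-well plates. Here, GI50 denotes the concentration required for 50% inhibition of growth. TGI marks complete inhibition of growth.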

How the values were obtained:
Test in all cases: DTP human tumour cell line panel, 48 h
SF-268 CNS = system: SF-268 CNS
RPMI-8226 leukemia = system: RPMI-8226 leukemia
NCI-H23 lung = system: NCI-H23 lung
SW-620 colon = system: SW-620 colon
HCT-116 colon = system: HCT-116 colon
CCRF-CEM leukemia = system: CCRF-CEM leukemia
A498 renal = system: A498 renal
HS 578T breast = system: HS 578T breast
T-47D breast = system: T-47D breast
SR leukemia = system: SR leukemia

C#Cc1c(C)c(/C=C/C(C)=C/C(=O)OC)n(C)c1C
TGI (SF-268 CNS): > 100 µM
TGI (RPMI-8226 leukemia): > 100 µM
TGI (NCI-H23 lung): > 100 µM
TGI (SW-620 colon): > 100 µM
TGI (HCT-116 colon): > 100 µM
TGI (CCRF-CEM leukemia): > 100 µM
TGI (A498 renal): > 100 µM

C=CC(=O)Nc1cc(N2CCN(CC)CC2)ccc1Nc1cc(N(C)C(=O)Nc2c(Cl)c(OC)cc(OC)c2Cl)ncn1
GI50 (SF-268 CNS): 5.53 µM
TGI (SF-268 CNS): 27.7 µM
GI50 (HS 578T breast): 4.77 µM
TGI (HS 578T breast): 40.8 µM
GI50 (RPMI-8226 leukemia): 2.37 µM
TGI (RPMI-8226 leukemia): 7.22 µM
GI50 (NCI-H23 lung): 4.36 µM
TGI (NCI-H23 lung): 20 µM
GI50 (T-47D breast): 3.3 µM
TGI (T-47D breast): 26.4 µM
GI50 (SW-620 colon): 3.29 µM
TGI (SW-620 colon): 11.7 µM
GI50 (HCT-116 colon): 3.37 µM
TGI (HCT-116 colon): 14.2 µM
GI50 (CCRF-CEM leukemia): 3.02 µM
TGI (CCRF-CEM leukemia): 11.2 µM
GI50 (A498 renal): 2.18 µM
TGI (A498 renal): 8.53 µM

c1ccc2c(c1)oc1ccc3nsnc3c12
TGI (SF-268 CNS): > 100 µM
TGI (NCI-H23 lung): > 100 µM
TGI (SW-620 colon): > 100 µM
TGI (HCT-116 colon): > 100 µM
TGI (CCRF-CEM leukemia): > 100 µM
TGI (SR leukemia): > 100 µM
TGI (A498 renal): > 100 µM

O=S(=O)(NCn1ccc2ccccc21)c1ccccc1
TGI (SF-268 CNS): > 100 µM
TGI (RPMI-8226 leukemia): 47.2 µM
TGI (NCI-H23 lung): > 100 µM
TGI (SW-620 colon): > 100 µM
TGI (HCT-116 colon): > 100 µM
TGI (CCRF-CEM leukemia): > 100 µM
TGI (SR leukemia): > 74.3 µM
TGI (A498 renal): > 100 µM

COc1ccc(C(=O)NNc2nc(Cl)nc(N3CCN(C(c4ccccc4)c4ccccc4)CC3)n2)cc1
GI50 (SF-268 CNS): 2.01 µM
TGI (SF-268 CNS): 4.31 µM
GI50 (HS 578T breast): 1.95 µM
TGI (HS 578T breast): 4.76 µM
GI50 (RPMI-8226 leukemia): 33.7 µM
TGI (RPMI-8226 leukemia): > 100 µM
GI50 (NCI-H23 lung): 1.88 µM
TGI (NCI-H23 lung): 4.02 µM
GI50 (T-47D breast): 64 µM
TGI (T-47D breast): > 100 µM
GI50 (HCT-116 colon): 1.74 µM
TGI (HCT-116 colon): 3.22 µM
GI50 (CCRF-CEM leukemia): 1.25 µM
TGI (CCRF-CEM leukemia): 4.12 µM
GI50 (A498 renal): 10.4 µM
TGI (A498 renal): 23.2 µM

NCCOCCOCCNc1nc(-c2ccc(Cl)cc2)nc(N2CCN(c3ccccn3)CC2)n1
GI50 (SF-268 CNS): 3.24 µM
TGI (SF-268 CNS): 12.9 µM
GI50 (HS 578T breast): 1.92 µM
TGI (HS 578T breast): 4.6 µM
GI50 (NCI-H23 lung): 1.86 µM
TGI (NCI-H23 lung): 3.83 µM
GI50 (T-47D breast): 3.09 µM
TGI (T-47D breast): 9.94 µM
GI50 (SW-620 colon): 1.75 µM
TGI (SW-620 colon): 3.35 µM
GI50 (HCT-116 colon): 1.75 µM
TGI (HCT-116 colon): 3.22 µM
GI50 (A498 renal): 1.33 µM
TGI (A498 renal): 7.71 µM

CCCCCCCCNCCC[C@@H](C)[C@H]1CC[C@H]2[C@@H]3[C@H](OCCCN)C[C@H]4C[C@H](OCCCN)CC[C@]4(C)[C@H]3C[C@H](OCCCN)[C@]12C
GI50 (SF-268 CNS): 1.5 µM
TGI (SF-268 CNS): 3.7 µM
GI50 (HS 578T breast): 2.43 µM
TGI (HS 578T breast): 5.59 µM
GI50 (RPMI-8226 leukemia): 1.27 µM
TGI (RPMI-8226 leukemia): 3.49 µM
GI50 (NCI-H23 lung): 1.81 µM
TGI (NCI-H23 lung): 5.4 µM
GI50 (T-47D breast): 3.92 µM
TGI (T-47D breast): > 26.7 µM
GI50 (SW-620 colon): 1.72 µM
TGI (SW-620 colon): 3.85 µM
GI50 (HCT-116 colon): 0.87 µM
TGI (HCT-116 colon): 2.61 µM
GI50 (CCRF-CEM leukemia): 1.89 µM
TGI (CCRF-CEM leukemia): 4.27 µM
GI50 (A498 renal): 21.3 µM
TGI (A498 renal): 54.5 µM

O=C(c1ccccc1)c1c(NCC(O)CN2CCOCC2)n(Cc2ccccc2)c(=O)n(Cc2ccccc2)c1=O (configuration not stated)
GI50 (SF-268 CNS): > 79.8 µM
TGI (SF-268 CNS): > 100 µM
GI50 (HS 578T breast): 55 µM
TGI (HS 578T breast): > 100 µM
GI50 (RPMI-8226 leukemia): 24 µM
TGI (RPMI-8226 leukemia): > 92.4 µM
GI50 (NCI-H23 lung): 1.19 µM
GI50 (T-47D breast): 1.69 µM
TGI (T-47D breast): > 43.3 µM
GI50 (SW-620 colon): 52.9 µM
TGI (SW-620 colon): > 100 µM
GI50 (HCT-116 colon): 34.1 µM
TGI (HCT-116 colon): > 100 µM
GI50 (CCRF-CEM leukemia): 41.3 µM
TGI (CCRF-CEM leukemia): > 100 µM
GI50 (A498 renal): 27.5 µM
TGI (A498 renal): > 88.8 µM

O=C1C=CC(=O)c2c(O)c(NCCOCCO)c(Cl)c(O)c21
TGI (RPMI-8226 leukemia): > 100 µM
TGI (NCI-H23 lung): 3.51 µM
TGI (SW-620 colon): 11 µM
TGI (HCT-116 colon): 8.32 µM
TGI (SR leukemia): 37.9 µM

CC(=O)[O-].[Mn+3].[O-]c1ccccc1C=NCCNCCN=Cc1ccccc1[O-]
GI50 (SF-268 CNS): > 100 µM
TGI (SF-268 CNS): > 100 µM
GI50 (NCI-H23 lung): > 100 µM
TGI (NCI-H23 lung): > 100 µM
GI50 (HCT-116 colon): > 100 µM
TGI (HCT-116 colon): > 100 µM
GI50 (CCRF-CEM leukemia): 86.1 µM
TGI (CCRF-CEM leukemia): > 100 µM

C=CCC1=C(C)C[C@@H]2CCC(=O)C=C12
TGI (SF-268 CNS): > 100 µM
TGI (RPMI-8226 leukemia): > 100 µM
TGI (NCI-H23 lung): > 100 µM
TGI (SW-620 colon): > 100 µM
TGI (HCT-116 colon): > 100 µM
TGI (CCRF-CEM leukemia): > 100 µM
TGI (A498 renal): > 100 µM

Cc1cccc(C)c1NC(=O)CCc1nc(=S)[nH][nH]1
TGI (SF-268 CNS): > 100 µM
TGI (RPMI-8226 leukemia): > 100 µM
TGI (NCI-H23 lung): > 100 µM
TGI (SW-620 colon): > 100 µM
TGI (HCT-116 colon): > 100 µM
TGI (CCRF-CEM leukemia): > 100 µM
TGI (A498 renal): > 100 µM

CC(=O)O[C@]1(C)OC(=O)[C@@H](CC(C)C)N1[N+](=O)[O-]
TGI (RPMI-8226 leukemia): > 100 µM
TGI (NCI-H23 lung): > 100 µM
TGI (SW-620 colon): > 100 µM
TGI (HCT-116 colon): > 100 µM
TGI (CCRF-CEM leukemia): > 100 µM
TGI (SR leukemia): > 100 µM
TGI (A498 renal): > 100 µM

CC(=O)OCC(=O)[C@@]12OC(C)(C)O[C@@H]1C[C@H]1[C@@H]3CC(C=O)=C4C=C(OCCCl)CC[C@]4(C)[C@@]3(F)[C@@H](O)C[C@@]12C
TGI (SF-268 CNS): > 100 µM
TGI (RPMI-8226 leukemia): > 100 µM
TGI (NCI-H23 lung): 42.2 µM
TGI (SW-620 colon): > 100 µM
TGI (HCT-116 colon): 27.4 µM
TGI (CCRF-CEM leukemia): > 100 µM
TGI (SR leukemia): > 100 µM
TGI (A498 renal): 57.9 µM

O=c1/c(=C\c2ccc(F)cc2)sc2n1C(c1ccc(F)cc1)C1=C(N=2)c2ccc3ccccc3c2OCC1 (configuration not stated)
GI50 (SF-268 CNS): > 30.8 µM
TGI (SF-268 CNS): > 100 µM
GI50 (HS 578T breast): > 100 µM
TGI (HS 578T breast): > 100 µM
GI50 (RPMI-8226 leukemia): > 100 µM
TGI (RPMI-8226 leukemia): > 100 µM
GI50 (NCI-H23 lung): > 100 µM
TGI (NCI-H23 lung): > 100 µM
GI50 (T-47D breast): > 100 µM
TGI (T-47D breast): > 100 µM
GI50 (SW-620 colon): > 100 µM
TGI (SW-620 colon): > 100 µM
GI50 (HCT-116 colon): > 100 µM
TGI (HCT-116 colon): > 100 µM
GI50 (CCRF-CEM leukemia): > 100 µM
TGI (CCRF-CEM leukemia): > 100 µM
GI50 (A498 renal): > 100 µM
TGI (A498 renal): > 100 µM

CCCC(=O)N[C@H]1C2C3CC4C5CC(C42)C1(C)C53 (some centres not stated)
TGI (SF-268 CNS): > 100 µM
TGI (RPMI-8226 leukemia): > 100 µM
TGI (SW-620 colon): > 100 µM
TGI (HCT-116 colon): > 100 µM
TGI (CCRF-CEM leukemia): > 100 µM
TGI (SR leukemia): > 100 µM
TGI (A498 renal): > 100 µM

O=c1ncccn1C1OC(CO)C(O)C1O (configuration not stated)
TGI (SF-268 CNS): > 100 µM
TGI (RPMI-8226 leukemia): > 100 µM
TGI (NCI-H23 lung): > 100 µM
TGI (SW-620 colon): > 100 µM
TGI (HCT-116 colon): > 100 µM
TGI (CCRF-CEM leukemia): > 100 µM
TGI (A498 renal): > 100 µM

COc1ccc(CCn2c(=O)c3ccccc3n(C)c2=O)cc1
TGI (SF-268 CNS): > 100 µM
TGI (RPMI-8226 leukemia): > 100 µM
TGI (NCI-H23 lung): > 100 µM
TGI (SW-620 colon): > 100 µM
TGI (HCT-116 colon): > 100 µM
TGI (CCRF-CEM leukemia): > 100 µM
TGI (A498 renal): > 100 µM

O=C(O)CCNCCCCNCCC(=O)O
TGI (SF-268 CNS): > 100 µM
TGI (RPMI-8226 leukemia): > 100 µM
TGI (NCI-H23 lung): > 100 µM
TGI (SW-620 colon): > 100 µM
TGI (HCT-116 colon): > 100 µM
TGI (CCRF-CEM leukemia): > 100 µM
TGI (A498 renal): > 100 µM

N.N.N.N.N.O=[N+]([O-])[O-].[Co+3].[O-][Cl+3]([O-])([O-])[O-]
GI50 (SF-268 CNS): > 100 µM
TGI (SF-268 CNS): > 100 µM
GI50 (RPMI-8226 leukemia): > 100 µM
TGI (RPMI-8226 leukemia): > 100 µM
GI50 (NCI-H23 lung): > 100 µM
TGI (NCI-H23 lung): > 100 µM
GI50 (SW-620 colon): > 100 µM
TGI (SW-620 colon): > 100 µM
GI50 (HCT-116 colon): > 100 µM
TGI (HCT-116 colon): > 100 µM
GI50 (CCRF-CEM leukemia): > 100 µM
TGI (CCRF-CEM leukemia): > 100 µM
GI50 (A498 renal): > 100 µM
TGI (A498 renal): > 100 µM
